Source: US12168650B2, “Crystalline forms of 3-(5-(2-hydroxy-2-methylpropoxy)-6-methylpyrazin-2-yl)-1H-indole-7-carbonitrile” (NIDO BIOSCIENCES, INC., priority 2022, dated 2024)
Where “and” joins values, the source holds several entries; their conditions need not be identical. Equal values may be shown once.

Columns and labels:
[1] = tested on: LNCaP cells expressing ARR2PB-FireflyLuc and CMV-RenillaLuc; test: LNCaP ARR2PB-FireflyLuc reporter assay; format: cell-based; conditions: Homo sapiens, +/−0.5 nM DHT, 48 h at 37° C.
Experimental: LNCaP cells expressing ARR2PB-FireflyLuc and CMV-RenillaLuc were treated with indicated concentrations of the test compound, enzalutamide (negative control), or DHT (positive control)+/−0.5 nM DHT for 48 h at 37° C. […] signals were read with the ImageXpress Micro Confocal System. Remaining activity (antagonist mode) was calculated as % Remaining Activity=100×[(Readsample−LCave)/(HCave−LCave)] where HC is cells treated with 0.5 nM DHT only and LC is cells treated with 10 uM enzalutamide+0.5 nM DHT. Activation (agonist mode) was calculated as % Activation=100×[(ReadSample−LCave)/(HCave−LCave)] where HC is cells treated with 1 uM DHT and LC is cells treated with DMSO. Dose response curves and IC50 values were calculated using non-linear regression analysis in XLfit.

[2] = Solution state chemical stability; format: physicochemical; conditions: for Purity: ~10 mg/ml
Experimental: The solution state chemical stability was carried out in acetone, MEK, and 2-MeTHF solvent systems at 50° C. and 55° C. […] The purity of the compound degraded from 99.43% to 98.27% after 48 h holding at 55° C. in MEK solvent system.
2-MeTHF/n-hep was selected as the potential solvent system for the crystallization. The solution state chemical stability was carried out in 2-MeTHF solvent systems at higher temperature (60° C. and 70° C.).

[3] = Competitive equilibration experiments of anhydrates; conditions: at both 25° C. and 50° C.
Experimental: Relative stability of the anhydrate Forms A, C, H and J was investigated with competitive equilibration experiments.
Relative stability of the anhydrates Forms C, K and L was investigated with competitive equilibration experiments.
To determine relative stability of anhydrates, competitive equilibration experiments were conducted in different solvent systems.
About 2 mg of each anhydrate was added to 0.3-0.4 mL saturated solutions of selected solvents. Obtained suspensions were stirred at 25° C. for 3-10 days, respectively. Solid parts (wet cakes) were isolated by centrifugation filtration and investigated by XRPD.

[4] = Interconversion of polymorphs (heating, dehydration, humidity, equilibration); format: physicochemical
From the text: In total, 15 forms were identified to be polymorphs or pseudo-polymorphs of the free form, including seven anhydrates, Forms A, C, H, J, K. L and O; four hydrates, Forms B, F, M and N; and three solvates, Forms D, E and I. In addition, a metastable form, Form G, and an amorphous form were also obtained.
The interconversion relation of polymorphs identified is outlined in FIG. 5.

Cc1nc(-c2c[nH]c3c(C#N)cccc23)cnc1OCC(C)(C)O [3-(5-(2-hydroxy-2-methylpropoxy)-6-methylpyrazin-2-yl)-1H-indole-7-carbonitrile]
IC50 [1]: 50 nM | Purity ([2]; 2-MeTHF, 55° C., 0 h): 99.35% a % | Purity ([2]; 2-MeTHF, 55° C., 6 h): 99.55% a % | Purity ([2]; 2-MeTHF, 55° C., 24 h): 99.62% a % | Purity ([2]; 2-MeTHF, 55° C., 48 h): 99.62% a % | Purity ([2]; 2-MeTHF, 60° C., 0 h): 99.54% a % | Purity ([2]; 2-MeTHF, 60° C., 24 h): 99.69% a % | Purity ([2]; 2-MeTHF, 60° C., 48 h): 99.56% a % | Purity ([2]; 2-MeTHF, 70° C., 0 h): 99.53% a % | Purity ([2]; 2-MeTHF, 70° C., 24 h): 99.70% a % | Purity ([2]; 2-MeTHF, 70° C., 48 h): 99.44% a % | Purity ([2]; 2-MeTHF/n-hep = 1 v/1 v, 70° C., 0 h): 98.45% a % | Purity ([2]; 2-MeTHF/n-hep = 1 v/1 v, 70° C., 24 h): 98.44% a % | Purity ([2]; 2-MeTHF/n-hep = 1 v/1 v, 70° C., 48 h): 98.44% a % | Purity ([2]; Acetone, 50° C., 0 h): 99.54% a % | Purity ([2]; Acetone, 50° C., 6 h): 99.50% a % | Purity ([2]; Acetone, 50° C., 24 h): 99.51% a % | Purity ([2]; Acetone, 50° C., 48 h): 99.69% a % | Purity ([2]; MEK, 55° C., 0 h): 99.43 a % and 99.43% a % | Purity ([2]; MEK, 55° C., 6 h): 99.23% a % | Purity ([2]; MEK, 55° C., 24 h): 98.54% a % | Purity ([2]; MEK, 55° C., 48 h): 98.27 a % and 98.27% a % | Solution state chemical stability ([2]; after 48 h holding in 2-MeTHF at 60° C. and 70° C.): stable | Solution state chemical stability ([2]; after 48 h holding in 2-MeTHF/n-hep=1v/1v at 70° C.): stable | Solution state chemical stability ([2]; after 48 h holding in both acetone and 2-MeTHF systems (50° C. and 55° C.)): stable

Cc1nc(-c2c[nH]c3c(C#N)cccc23)cnc1OCC(C)(C)O [Form A, 3-(5-(2-hydroxy-2-methylpropoxy)-6-methylpyrazin-2-yl)-1H-indole-7-carbonitrile]
Relative thermodynamic stability of anhydrates [3]: converts to Form C

Cc1nc(-c2c[nH]c3c(C#N)cccc23)cnc1OCC(C)(C)O [Form B, 3-(5-(2-hydroxy-2-methylpropoxy)-6-methylpyrazin-2-yl)-1H-indole-7-carbonitrile]
Form conversion ([4]; after dehydration): converts to Form K

Cc1nc(-c2c[nH]c3c(C#N)cccc23)cnc1OCC(C)(C)O [Form D, 3-(5-(2-hydroxy-2-methylpropoxy)-6-methylpyrazin-2-yl)-1H-indole-7-carbonitrile]
Form conversion ([4]; after desolvation): converts to Form C

Cc1nc(-c2c[nH]c3c(C#N)cccc23)cnc1OCC(C)(C)O [Form E, 3-(5-(2-hydroxy-2-methylpropoxy)-6-methylpyrazin-2-yl)-1H-indole-7-carbonitrile]
Form conversion ([4]; after heating to 100° C. by TGA and cooled to room temperature): converts to physical mixture of Form F and Form G

Cc1nc(-c2c[nH]c3c(C#N)cccc23)cnc1OCC(C)(C)O [Form G, 3-(5-(2-hydroxy-2-methylpropoxy)-6-methylpyrazin-2-yl)-1H-indole-7-carbonitrile]
Form conversion ([4]; equilibration in DMSO/water system at 25° C. for 6 days): converts to anhydrate Form H

Cc1nc(-c2c[nH]c3c(C#N)cccc23)cnc1OCC(C)(C)O [Form I, 3-(5-(2-hydroxy-2-methylpropoxy)-6-methylpyrazin-2-yl)-1H-indole-7-carbonitrile]
Form conversion ([4]; after heating to 140° C. by TGA and cooled to room temperature): converted to physical mixture of Form C, Form N and an unknown peak

Cc1nc(-c2c[nH]c3c(C#N)cccc23)cnc1OCC(C)(C)O [Form K, 3-(5-(2-hydroxy-2-methylpropoxy)-6-methylpyrazin-2-yl)-1H-indole-7-carbonitrile]
Form conversion ([4]; after melting and re-crystallization (DSC, VT-XRPD)): converts to Form L | Form conversion ([4]; exposure to 25° C. in 40-70% RH for 6 days): reverts back to Form B | Form conversion ([4]; exposure to 25° C./92% RH for 6 days): converts to hydrate Form B

Cc1nc(-c2c[nH]c3c(C#N)cccc23)cnc1OCC(C)(C)O [Form M, 3-(5-(2-hydroxy-2-methylpropoxy)-6-methylpyrazin-2-yl)-1H-indole-7-carbonitrile]
Form conversion ([4]; equilibration in MeOH at 25° C. for another 1 day): converts to Form B | Form conversion ([4]; wet cake from methanol, once exposed to the air): converted to Form B

Cc1nc(-c2c[nH]c3c(C#N)cccc23)cnc1OCC(C)(C)O [amorphous form, 3-(5-(2-hydroxy-2-methylpropoxy)-6-methylpyrazin-2-yl)-1H-indole-7-carbonitrile]
Form conversion ([4]; after exposure to high humidity): crystallized to Form N
